Like-named read-outs stand apart in the source and are kept apart here.
How the values were obtained:
Test in all cases: Ras GTP binding domain inhibition assay (Cy3-GTP/Cy5-GTP competition)
KRas G12D mutant = target: T1, KRas G12D mutant (Homo sapiens, UniProt P01116, G12D); settings: 20 μM
T1 construct: fused on or other part: His tag, used for capture on nickel-coated plates
Method in brief: (§1)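 Ni-plate immobilised His-Ras, overnight 4 °C; cpd 20 μM (or dilution series for IC50), 1% DMSO, 3 h RT; optional His-Sos […] last hour; Cy3- or Cy5-GTP 100 nM, 45 min RT; 3× wash; bound fluorescence read.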

KRas Q61H mutant = system: KRas Q61H mutant; design: species or system human; settings: 20 μM
Method in brief: as §1

KRas G12C mutant = system: KRas G12C mutant; design: species or system human; settings: 20 μM
Method in brief: as §1

KRas wild type = system: KRas wild type; design: species or system human; settings: 20 μM; for KRas wild type: % inh.: without SOS; for KRas wild type % inh.: without SOS (Table 7A)
Method in brief: as §1

[1] = with SOS, read-out: KRas G-12D mutant + SOS: % inh.
[2] = without SOS, read-out: KRas G12D mutant: % inh.
[3] = with SOS (Table 7A), read-out: KRas G12D mutant + SOS: % inh.
[4] = without SOS (Table 7A), read-out: KRas G12D mutant: % inh.

Structure (SMILES) | inhibition at 20 µM (KRas G12D mutant; [1]) [%] | inhibition at 20 µM (KRas G12D mutant; [2]) [%] | KRas Q61H mutant + SOS: % inh. (KRas Q61H mutant; with SOS) | KRas Q61H mutant: % inh. (KRas Q61H mutant; without SOS) | KRas G12C mutant + SOS: % inh. (KRas G12C mutant; with SOS) | KRas G12C mutant: % inh. (KRas G12C mutant; without SOS) | KRas wild type + SOS: % inh. (KRas wild type; with SOS) | KRas wild type: % inh. (KRas wild type) | inhibition at 20 µM (KRas G12D mutant; [3]) [%] | inhibition at 20 µM (KRas G12D mutant; [4]) [%] | KRas Q61H mutant + SOS: % inh. (KRas Q61H mutant; with SOS (Table 7A)) | KRas Q61H mutant: % inh. (KRas Q61H mutant; without SOS (Table 7A)) | KRas G12C mutant + SOS: % inh. (KRas G12C mutant; with SOS (Table 7A)) | KRas G12C mutant: % inh. (KRas G12C mutant; without SOS (Table 7A)) | KRas wild type + SOS: % inh. (KRas wild type; with SOS (Table 7A)) | KRas wild type % inh. (KRas wild type)
COCCCN(C)c1nc(-c2nccn2C)nc2sc(-c3ccn(C)n3)c(-c3ccccc3)c12 [drawing 865] | 26 to 50 | 51 to 75 | B (26-50% inhibition) | A (1-25% inhibition) | B (26-50% inhibition) | A (1-25% inhibition) | B (26-50% inhibition) | A (1-25% inhibition) |  |  |  |  |  |  |  | 
Cn1ccc(-c2sc3nc(-c4nccn4C)nc(O)c3c2-c2ccccc2)n1 [drawing 904] |  |  |  |  |  |  |  |  | 26 to 50 | 26 to 50 | B (26-50% inhibition) | C (51-75% inhibition) | B (26-50% inhibition) | B (26-50% inhibition) | A (1-25% inhibition) | A (1-25% inhibition)
CO[C@H]1CC[C@@H](Nc2nc(-c3nccn3C)nc(C(=O)N3CCc4c(O)cccc4C3)c2C)C1 [drawing 901] |  |  |  |  |  |  |  |  | 26 to 50 | 26 to 50 | B (26-50% inhibition) | B (26-50% inhibition) | A (1-25% inhibition) | B (26-50% inhibition) | A (1-25% inhibition) | B (26-50% inhibition)
COCCNc1nc(-c2nccn2C)nc2sc(-c3cccc(OC)c3Cl)c(-c3ccccc3)c12 [drawing 872] | 76 to 100 | 1 to 25 | D (76-100% inhibition) | B (26-50% inhibition) | D (76-100% inhibition) | C (51-75% inhibition) | D (76-100% inhibition) | B (26-50% inhibition) |  |  |  |  |  |  |  | 
CN(C)CCOCCNc1nc(-c2nccn2C)nc2sc(-c3ccn(C)n3)c(-c3ccccc3)c12 [drawing 907] |  |  |  |  |  |  |  |  | 51 to 75 | 26 to 50 | D (76-100% inhibition) | C (51-75% inhibition) | C (51-75% inhibition) | C (51-75% inhibition) | C (51-75% inhibition) | C (51-75% inhibition)
CC(C)CN(C)C(=O)c1nc(-c2ccccn2)nc(O)c1O [drawing 798] | 26 to 50 | 26 to 50 | B (26-50% inhibition) | B (26-50% inhibition) | B (26-50% inhibition) | C (51-75% inhibition) | A (1-25% inhibition) | B (26-50% inhibition) |  |  |  |  |  |  |  | 
COc1cccc(Cn2ccnc2-c2nc(O)c3scc(-c4ccc(OCC(C)C)nc4)c3n2)c1 [drawing 900] |  |  |  |  |  |  |  |  | 51 to 75 | 51 to 75 | C (51-75% inhibition) | C (51-75% inhibition) | B (26-50% inhibition) | C (51-75% inhibition) | B (26-50% inhibition) | C (51-75% inhibition)
